Data from PMC11871066, “Structure-based discovery of hydrocarbon-stapled paxillin peptides that block FAK scaffolding in cancer” (Nature Communications, 2025).

What was measured:
Test in all cases: Eurofins KINOMEscan profiling, 97 kinases
[1] = biological target: 97 kinases (kinase named in endpoint) (Homo sapiens, UniProt P45984); details: read-out: % Ctrl, JNK2
Method: (§1) This experiment was performed by Eurofins KINOMEscan™ Profiling Service. […] The lysates were centrifuged and filtered, the remaining kinases were produced in HEK-293 cells and subsequently tagged with DNA for qPCR detection. […] The liganded beads were blocked with excess biotin and washed with blocking buffer (SeaBlock (Pierce), 1% BSA, 0.05% Tween-20, 1 mM DTT). […] Test compounds were prepared as 100x stocks in 100% DMSO and directly diluted into the assay. All reactions were performed in polypropylene 384-well plates in a final volume of 0.02 ml. […] The kinase concentration in the eluates was measured by qPCR.
(§2) (negative control signal - positive control signal)] x 100. ( b) AccompanyingSelectivity Scores or S -scores
(§3) which are quantitative measures of compound selectivity. They are calculated by dividing the number of
(§4) kinases that compounds bind to by the total number of distinct kinases tested, excluding mutant variants.
(§5) S(35)= ( num ber of non -mutant kinases with %Ctrl <35)/(number of non- mutant kinases tested)], S(10)=
(§6) non- mutant kinases with %Ctrl <1)/(number of non- mutant kinases tested)].

[2] = biological target: 97 kinases (kinase named in endpoint) (Homo sapiens, UniProt Q13177); details: read-out: % Ctrl, PAK2
Method: as §1, §2, §3, §4, §5, §6

[3] = biological target: 97 kinases (kinase named in endpoint) (Homo sapiens, UniProt P15056, V600E); details: read-out: % Ctrl, BRAF(V600E)
Method: as §1, §2, §3, §4, §5, §6

[4] = biological target: 97 kinases (kinase named in endpoint) (Homo sapiens, UniProt P36897); details: read-out: % Ctrl, TGFBR1
Method: as §1, §2, §3, §4, §5, §6

[5] = biological target: 97 kinases (kinase named in endpoint) (Homo sapiens, UniProt O15530); details: read-out: % Ctrl, PDPK1
Method: as §1, §2, §3, §4, §5, §6

[6] = biological target: 97 kinases (kinase named in endpoint) (Homo sapiens, UniProt O15111); details: read-out: % Ctrl, IKK-alpha
Sequence of 97 kinases (kinase named in endpoint) (Homo sapiens, UniProt O15111) (O15111 whole entry): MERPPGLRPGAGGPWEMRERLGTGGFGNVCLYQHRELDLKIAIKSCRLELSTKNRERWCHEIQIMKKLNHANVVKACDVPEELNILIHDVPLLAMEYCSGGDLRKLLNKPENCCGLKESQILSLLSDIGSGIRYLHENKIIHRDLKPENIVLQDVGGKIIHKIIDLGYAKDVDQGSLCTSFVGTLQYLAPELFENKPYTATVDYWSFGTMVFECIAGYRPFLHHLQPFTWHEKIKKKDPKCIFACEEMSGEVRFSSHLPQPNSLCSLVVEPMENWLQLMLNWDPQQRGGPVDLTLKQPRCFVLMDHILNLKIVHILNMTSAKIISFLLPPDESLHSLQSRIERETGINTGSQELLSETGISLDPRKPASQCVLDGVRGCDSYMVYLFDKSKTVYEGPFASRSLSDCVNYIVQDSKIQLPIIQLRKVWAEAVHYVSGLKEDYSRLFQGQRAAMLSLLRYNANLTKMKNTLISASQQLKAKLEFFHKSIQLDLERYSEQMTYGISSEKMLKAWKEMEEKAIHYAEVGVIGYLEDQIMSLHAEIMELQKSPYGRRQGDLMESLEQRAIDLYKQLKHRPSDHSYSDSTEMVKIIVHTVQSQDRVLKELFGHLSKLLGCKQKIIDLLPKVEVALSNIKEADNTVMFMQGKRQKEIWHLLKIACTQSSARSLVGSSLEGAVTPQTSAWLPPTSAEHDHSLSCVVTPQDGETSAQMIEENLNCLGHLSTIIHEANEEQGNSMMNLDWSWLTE
Method: as §1, §2, §3, §4, §5, §6

[7] = biological target: 97 kinases (kinase named in endpoint) (Homo sapiens, UniProt Q15303); details: read-out: % Ctrl, ERBB4
Method: as §1, §2, §3, §4, §5, §6

[8] = biological target: 97 kinases (kinase named in endpoint) (Homo sapiens, UniProt P21802); details: read-out: % Ctrl, FGFR2
Method: as §1, §2, §3, §4, §5, §6

[9] = biological target: 97 kinases (kinase named in endpoint) (Homo sapiens, UniProt Q8IYT8); details: read-out: % Ctrl, ULK2
Method: as §1, §2, §3, §4, §5, §6

[10] = biological target: 97 kinases (kinase named in endpoint) (Homo sapiens, UniProt P27448); details: read-out: % Ctrl, MARK3
Method: as §1, §2, §3, §4, §5, §6

[11] = biological target: 97 kinases (kinase named in endpoint) (Homo sapiens, UniProt Q8NI60); details: read-out: % Ctrl, ADCK3
Sequence of 97 kinases (kinase named in endpoint) (Homo sapiens, UniProt Q8NI60) (Q8NI60 163-647): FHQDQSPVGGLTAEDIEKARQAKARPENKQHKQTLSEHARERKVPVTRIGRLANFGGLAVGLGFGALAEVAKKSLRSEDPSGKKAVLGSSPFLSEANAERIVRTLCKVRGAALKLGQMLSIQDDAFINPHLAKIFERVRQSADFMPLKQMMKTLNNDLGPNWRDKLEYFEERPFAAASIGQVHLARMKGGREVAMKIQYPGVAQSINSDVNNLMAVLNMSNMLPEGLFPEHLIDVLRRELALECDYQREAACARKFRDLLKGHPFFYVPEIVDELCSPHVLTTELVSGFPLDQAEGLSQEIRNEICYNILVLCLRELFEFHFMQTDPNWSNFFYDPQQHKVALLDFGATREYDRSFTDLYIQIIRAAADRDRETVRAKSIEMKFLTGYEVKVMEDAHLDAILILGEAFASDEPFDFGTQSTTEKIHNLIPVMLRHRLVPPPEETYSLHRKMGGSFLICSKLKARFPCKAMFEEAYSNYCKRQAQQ
Method: as §1, §2, §3, §4, §5, §6

[12] = biological target: 97 kinases (kinase named in endpoint) (Homo sapiens, UniProt Q9UM73); details: read-out: % Ctrl, ALK
Sequence of 97 kinases (kinase named in endpoint) (Homo sapiens, UniProt Q9UM73) (Q9UM73 19-1620): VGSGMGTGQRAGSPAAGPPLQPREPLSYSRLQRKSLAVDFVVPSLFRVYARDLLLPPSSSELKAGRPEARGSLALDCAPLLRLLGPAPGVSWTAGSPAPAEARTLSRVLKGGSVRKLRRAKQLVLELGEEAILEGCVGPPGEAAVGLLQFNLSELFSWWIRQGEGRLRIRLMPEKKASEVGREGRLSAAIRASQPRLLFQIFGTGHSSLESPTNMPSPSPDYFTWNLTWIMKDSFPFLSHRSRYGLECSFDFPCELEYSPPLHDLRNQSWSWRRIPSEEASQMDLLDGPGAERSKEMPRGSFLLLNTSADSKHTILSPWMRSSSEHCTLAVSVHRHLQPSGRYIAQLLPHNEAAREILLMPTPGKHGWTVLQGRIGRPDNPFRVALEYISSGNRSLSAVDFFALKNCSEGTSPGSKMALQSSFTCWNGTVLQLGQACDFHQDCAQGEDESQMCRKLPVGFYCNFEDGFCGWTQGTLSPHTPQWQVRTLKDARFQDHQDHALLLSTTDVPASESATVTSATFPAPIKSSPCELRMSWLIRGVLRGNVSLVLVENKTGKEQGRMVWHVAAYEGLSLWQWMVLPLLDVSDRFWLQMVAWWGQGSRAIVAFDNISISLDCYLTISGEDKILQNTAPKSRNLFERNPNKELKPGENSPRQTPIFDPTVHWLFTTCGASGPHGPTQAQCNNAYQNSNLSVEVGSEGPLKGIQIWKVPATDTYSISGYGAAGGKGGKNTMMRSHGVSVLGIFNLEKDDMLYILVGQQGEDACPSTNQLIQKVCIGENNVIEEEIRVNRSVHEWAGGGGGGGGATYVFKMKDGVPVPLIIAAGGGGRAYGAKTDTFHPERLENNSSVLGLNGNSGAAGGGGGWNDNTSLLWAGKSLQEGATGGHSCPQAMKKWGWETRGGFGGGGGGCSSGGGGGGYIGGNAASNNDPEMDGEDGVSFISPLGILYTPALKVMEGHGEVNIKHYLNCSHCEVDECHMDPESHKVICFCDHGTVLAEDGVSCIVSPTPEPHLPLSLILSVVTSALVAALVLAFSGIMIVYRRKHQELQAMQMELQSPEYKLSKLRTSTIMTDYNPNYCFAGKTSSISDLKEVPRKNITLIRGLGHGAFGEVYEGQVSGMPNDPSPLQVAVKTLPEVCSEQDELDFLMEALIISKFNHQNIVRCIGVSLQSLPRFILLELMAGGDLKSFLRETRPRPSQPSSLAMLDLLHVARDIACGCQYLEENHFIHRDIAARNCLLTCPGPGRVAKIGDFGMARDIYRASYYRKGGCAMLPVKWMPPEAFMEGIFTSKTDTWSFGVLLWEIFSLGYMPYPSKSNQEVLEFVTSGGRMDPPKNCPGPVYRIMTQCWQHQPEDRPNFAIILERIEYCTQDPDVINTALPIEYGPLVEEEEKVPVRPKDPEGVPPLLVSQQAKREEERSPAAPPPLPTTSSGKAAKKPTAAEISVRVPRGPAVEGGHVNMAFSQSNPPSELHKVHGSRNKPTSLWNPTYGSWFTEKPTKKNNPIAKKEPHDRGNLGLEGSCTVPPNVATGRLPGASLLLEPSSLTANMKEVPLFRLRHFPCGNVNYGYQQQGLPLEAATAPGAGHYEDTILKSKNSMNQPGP
Method: as §1, §2, §3, §4, §5, §6

[13] = biological target: 97 kinases (kinase named in endpoint) (Homo sapiens, UniProt O00750); details: read-out: % Ctrl, PIK3C2B
Method: as §1, §2, §3, §4, §5, §6

[14] = biological target: 97 kinases (kinase named in endpoint) (Homo sapiens, UniProt Q9H4B4); details: read-out: % Ctrl, PLK3
Sequence of 97 kinases (kinase named in endpoint) (Homo sapiens, UniProt Q9H4B4) (Q9H4B4 whole entry): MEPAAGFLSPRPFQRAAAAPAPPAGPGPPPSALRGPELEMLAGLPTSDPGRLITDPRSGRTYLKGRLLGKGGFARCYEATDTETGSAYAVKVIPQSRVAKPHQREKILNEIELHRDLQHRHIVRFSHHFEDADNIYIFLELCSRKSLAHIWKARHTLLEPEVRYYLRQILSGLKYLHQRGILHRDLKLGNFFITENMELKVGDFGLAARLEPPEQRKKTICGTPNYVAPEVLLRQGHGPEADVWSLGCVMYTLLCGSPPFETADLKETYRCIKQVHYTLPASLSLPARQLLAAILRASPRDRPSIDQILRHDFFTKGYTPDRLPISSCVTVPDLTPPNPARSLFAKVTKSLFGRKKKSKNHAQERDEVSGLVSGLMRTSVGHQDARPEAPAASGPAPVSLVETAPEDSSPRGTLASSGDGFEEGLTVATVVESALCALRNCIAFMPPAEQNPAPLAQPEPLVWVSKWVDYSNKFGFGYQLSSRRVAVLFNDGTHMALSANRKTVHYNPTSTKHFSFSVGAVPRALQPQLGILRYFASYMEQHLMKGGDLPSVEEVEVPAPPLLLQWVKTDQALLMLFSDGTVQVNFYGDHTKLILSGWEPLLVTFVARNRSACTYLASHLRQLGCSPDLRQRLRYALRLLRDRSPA
Method: as §1, §2, §3, §4, §5, §6

[15] = biological target: 97 kinases (kinase named in endpoint) (Homo sapiens, UniProt Q9H093); details: read-out: % Ctrl, SNARK
Method: as §1, §2, §3, §4, §5, §6

[16] = biological target: 97 kinases (kinase named in endpoint) (Homo sapiens, UniProt Q16539); details: read-out: % Ctrl, p38-alpha
Sequence of 97 kinases (kinase named in endpoint) (Homo sapiens, UniProt Q16539) (Q16539 whole entry): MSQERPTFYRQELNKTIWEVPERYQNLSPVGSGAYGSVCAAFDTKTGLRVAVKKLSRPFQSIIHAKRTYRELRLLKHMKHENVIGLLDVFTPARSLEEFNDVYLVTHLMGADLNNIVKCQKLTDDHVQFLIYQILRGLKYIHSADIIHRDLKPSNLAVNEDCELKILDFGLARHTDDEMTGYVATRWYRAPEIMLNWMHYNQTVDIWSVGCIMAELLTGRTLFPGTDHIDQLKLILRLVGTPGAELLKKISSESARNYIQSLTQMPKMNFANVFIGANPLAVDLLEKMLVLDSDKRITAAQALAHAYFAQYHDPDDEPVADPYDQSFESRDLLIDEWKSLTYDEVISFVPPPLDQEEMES
Method: as §1, §2, §3, §4, §5, §6

[17] = biological target: 97 kinases (kinase named in endpoint) (Homo sapiens, UniProt Q9BVS4); details: read-out: % Ctrl, RIOK2
Method: as §1, §2, §3, §4, §5, §6

[18] = biological target: 97 kinases (kinase named in endpoint) (Homo sapiens, UniProt Q9Y463); details: read-out: % Ctrl, DYRK1B
Method: as §1, §2, §3, §4, §5, §6

[19] = biological target: 97 kinases (kinase named in endpoint) (Homo sapiens, UniProt P36896); details: read-out: % Ctrl, ACVR1B
Method: as §1, §2, §3, §4, §5, §6

[20] = biological target: 97 kinases (kinase named in endpoint) (Homo sapiens, UniProt P36888); details: read-out: % Ctrl, FLT3
Method: as §1, §2, §3, §4, §5, §6

[21] = biological target: 97 kinases (kinase named in endpoint) (Homo sapiens, UniProt O75116); details: read-out: % Ctrl, ROCK2
Method: as §1, §2, §3, §4, §5, §6

[22] = biological target: 97 kinases (kinase named in endpoint) (Homo sapiens, UniProt Q9BUB5); details: read-out: % Ctrl, MKNK1
Method: as §1, §2, §3, §4, §5, §6

[23] = biological target: 97 kinases (kinase named in endpoint) (Homo sapiens, UniProt Q13873); details: read-out: % Ctrl, BMPR2
Method: as §1, §2, §3, §4, §5, §6

[24] = biological target: 97 kinases (kinase named in endpoint) (Homo sapiens, UniProt P29317); details: read-out: % Ctrl, EPHA2
Method: as §1, §2, §3, §4, §5, §6

[25] = biological target: 97 kinases (kinase named in endpoint) (Homo sapiens, UniProt P24941); details: read-out: % Ctrl, CDK2
Method: as §1, §2, §3, §4, §5, §6

[26] = biological target: 97 kinases (kinase named in endpoint) (Homo sapiens, UniProt P42336); details: read-out: % Ctrl, PIK3CA
Method: as §1, §2, §3, §4, §5, §6

[27] = biological target: 97 kinases (kinase named in endpoint) (Homo sapiens, UniProt P45983); details: read-out: % Ctrl, JNK1
Method: as §1, §2, §3, §4, §5, §6

[28] = biological target: 97 kinases (kinase named in endpoint) (Homo sapiens, UniProt Q86V86); details: read-out: % Ctrl, PIM3
Method: as §1, §2, §3, §4, §5, §6

Sequence of 97 kinases (kinase named in endpoint) (Homo sapiens, UniProt Q13177) (Q13177 whole entry): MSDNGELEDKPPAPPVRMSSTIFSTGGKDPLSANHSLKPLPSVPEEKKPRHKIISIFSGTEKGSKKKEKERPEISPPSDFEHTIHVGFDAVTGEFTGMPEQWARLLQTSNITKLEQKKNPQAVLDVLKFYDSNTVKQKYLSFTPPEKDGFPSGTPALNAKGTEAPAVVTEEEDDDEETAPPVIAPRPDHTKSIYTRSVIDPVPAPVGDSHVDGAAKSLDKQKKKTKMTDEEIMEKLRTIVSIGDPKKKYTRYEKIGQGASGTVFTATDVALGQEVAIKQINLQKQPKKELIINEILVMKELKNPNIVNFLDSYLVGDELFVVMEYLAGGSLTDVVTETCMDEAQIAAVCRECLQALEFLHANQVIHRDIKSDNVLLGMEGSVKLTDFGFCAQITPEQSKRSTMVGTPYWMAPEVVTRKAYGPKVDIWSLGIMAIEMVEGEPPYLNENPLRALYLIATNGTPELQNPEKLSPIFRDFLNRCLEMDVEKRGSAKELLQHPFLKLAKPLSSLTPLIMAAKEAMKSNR

Structure (SMILES)	remaining binding at 1 µM [1]	remaining binding at 1 µM [2]	remaining binding at 1 µM [3]	remaining binding at 1 µM [4]	remaining binding at 1 µM [5]	remaining binding at 1 µM [6]	remaining binding at 1 µM [7]	remaining binding at 1 µM [8]	remaining binding at 1 µM [9]	remaining binding at 1 µM [10]	remaining binding at 1 µM [11]	remaining binding at 1 µM [12]	remaining binding at 1 µM [13]	remaining binding at 1 µM [14]	remaining binding at 1 µM [15]	remaining binding at 1 µM [16]	remaining binding at 1 µM [17]	remaining binding at 1 µM [18]	remaining binding at 1 µM [19]	remaining binding at 1 µM [20]	other results
CCCCCCCCCCCCCC(=O)N[C@@H](CC(N)=O)C(=O)N[C@@H](CC(C)C)C(=O)N[C@]1(C)CCCCCCC=CCCC[C@@](C)(C(=O)N[C@@H](CCC(=O)O)C(=O)N[C@@H](CC(C)C)C(=O)N[C@@H](CC(N)=O)C(N)=O)NC(=O)[C@H](CC(C)C)NC(=O)[C@H](CC(C)C)NC(=O)[C@H](CCCNC(=N)N)NC(=O)[C@H](CC(=O)O)NC(=O)[C@H](CC(C)C)NC(=O)[C@H](CCC(=O)O)NC1=O [compound 2012]	100%	100%	100%	93%	99%	100%	83%	90%	100%	91%	100%	100%	100%	94%	100%	98%	91%	91%	81%	93%	remaining binding at 1 µM [21]: 100%; remaining binding at 1 µM [22]: 100%; remaining binding at 1 µM [23]: 100%; remaining binding at 1 µM [24]: 98%; remaining binding at 1 µM [25]: 88%; remaining binding at 1 µM [26]: 100%; remaining binding at 1 µM [27]: 97%; remaining binding at 1 µM [28]: 100%
CNC(=O)c1ccc(Nc2ncc(C(F)(F)F)c(NCc3nccnc3N(C)S(C)(=O)=O)n2)cc1 [defactinib]	52%	45%	100%	91%	50%	100%	100%	43%	28%	50%	93%	32%	100%	28%	13%	100%	50%	14%	83%	1.1%	remaining binding at 1 µM [21]: 43%; remaining binding at 1 µM [22]: 100%; remaining binding at 1 µM [23]: 25%; remaining binding at 1 µM [24]: 86%; remaining binding at 1 µM [25]: 63%; remaining binding at 1 µM [26]: 100%; remaining binding at 1 µM [27]: 61%; remaining binding at 1 µM [28]: 40%
